Source: ChEMBL document CHEMBL5550189, “Discovery of GS-7682, a Novel 4'-Cyano-Modified C-Nucleoside Prodrug with Broad Activity against Pneumo- and Picornaviruses and Efficacy in RSV-Infected African Green Monkeys” (J Med Chem, 2024)

Columns and labels:
[1] = test system: Respiratory syncytial virus; assay: Antiviral activity against RSV A2 infected in Normal human bronchial epithelial cells incubated for 3 days by ONE-Glo luciferase assay; format: functional, organism-based; settings: A2, Epithelial cell, 72 h
[2] = test system: Respiratory syncytial virus; assay: Antiviral activity against RSV A2 infected in human HEp-2 cells incubated for 4 days by Cell Titer Glo assay; format: functional, organism-based; settings: A2, HEp-2, 96 h
[3] = Cytotoxicity against human Hep-2 cells incubated for 4 to 5 days by Cell Titer Glo assay; format: toxicity, cell-based; settings: time 4-5 day
[4] = Cytotoxicity against human MT4 cells incubated for 5 days by Cell Titer Glo assay; format: toxicity, cell-based; settings: time 5 day
[5] = Distribution coefficient, log D of compound measured after 30 mins by HPLC/UV analysis; format: physicochemical; settings: octanol/water
[6] = target: T1, DNA-directed RNA polymerase, mitochondrial (Homo sapiens, UniProt O00411); assay: Inhibition of recombinant human POLRMT assessed as single-nucleotide incorporation rate at 500 uM measured for 60 mins in presence of ATP by imaging analysis relative to control; design: scale not given: the % may be the effect or the level left
T1 sequence (O00411 whole entry): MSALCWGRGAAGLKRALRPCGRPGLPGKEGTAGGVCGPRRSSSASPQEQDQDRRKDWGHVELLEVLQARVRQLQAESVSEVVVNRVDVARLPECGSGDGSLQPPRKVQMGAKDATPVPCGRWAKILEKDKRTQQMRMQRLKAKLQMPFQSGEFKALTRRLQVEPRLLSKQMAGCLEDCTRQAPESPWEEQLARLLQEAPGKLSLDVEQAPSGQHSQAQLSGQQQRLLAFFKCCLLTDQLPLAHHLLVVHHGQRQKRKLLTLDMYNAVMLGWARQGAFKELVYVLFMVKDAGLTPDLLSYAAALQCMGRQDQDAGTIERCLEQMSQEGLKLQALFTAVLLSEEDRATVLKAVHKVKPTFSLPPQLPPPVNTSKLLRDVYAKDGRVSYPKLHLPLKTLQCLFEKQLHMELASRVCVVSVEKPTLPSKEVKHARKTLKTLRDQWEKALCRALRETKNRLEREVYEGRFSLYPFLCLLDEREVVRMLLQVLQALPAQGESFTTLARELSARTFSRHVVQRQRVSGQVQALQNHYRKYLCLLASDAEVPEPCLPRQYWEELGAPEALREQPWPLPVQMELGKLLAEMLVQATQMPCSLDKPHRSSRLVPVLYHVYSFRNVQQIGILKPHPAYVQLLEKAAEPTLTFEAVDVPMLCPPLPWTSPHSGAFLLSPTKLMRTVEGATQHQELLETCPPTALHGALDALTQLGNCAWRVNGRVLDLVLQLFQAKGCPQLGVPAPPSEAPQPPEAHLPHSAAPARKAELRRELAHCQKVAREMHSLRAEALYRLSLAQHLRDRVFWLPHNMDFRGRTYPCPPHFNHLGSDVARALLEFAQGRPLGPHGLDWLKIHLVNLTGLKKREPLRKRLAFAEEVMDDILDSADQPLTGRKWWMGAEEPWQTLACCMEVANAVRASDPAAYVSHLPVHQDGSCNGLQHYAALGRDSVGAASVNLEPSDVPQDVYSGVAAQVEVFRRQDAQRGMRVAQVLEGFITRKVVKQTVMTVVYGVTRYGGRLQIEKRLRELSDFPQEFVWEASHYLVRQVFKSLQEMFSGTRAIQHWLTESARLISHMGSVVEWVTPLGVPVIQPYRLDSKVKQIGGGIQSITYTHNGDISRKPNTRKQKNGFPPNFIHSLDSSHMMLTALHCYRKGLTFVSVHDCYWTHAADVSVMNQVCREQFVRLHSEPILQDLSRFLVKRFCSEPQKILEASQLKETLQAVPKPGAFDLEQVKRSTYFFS

[7] = Inhibition of RSV ribonucleoprotein complex in presence of [alpha-32P]ATP by Phosphor imaging analysis; design: species or system Respiratory syncytial virus
[8] = target: T1, DNA-directed RNA polymerase, mitochondrial; assay: Inhibition of recombinant human POLRMT by Phosphor imaging analysis
Homo sapiens [9] = species on record: Homo sapiens; assay: Inhibition of recombinant human DNA Pol-gamma assessed as single-nucleotide incorporation rate at 50 uM measured for 60 mins in presence of dATP by imaging analysis relative to control; design: scale not given: the % may be the effect or the level left
Homo sapiens [10] = species on record: Homo sapiens; assay: Inhibition of recombinant human DNA Pol-alpha assessed as single-nucleotide incorporation rate at 50 uM measured for 60 mins in presence of dATP by imaging analysis relative to control; design: scale not given: the % may be the effect or the level left
[11] = Prodrug conversion in Normal human bronchial epithelial cells assessed as ((2R,3S,4R,5S)-5-(4-aminopyrrolo[2,1-f][1,2,4]triazin-7-yl)-2-cyano-3,4-dihydroxytetrahydrofuran-2-yl)methyl tetrahydrogen triphosphate formation measured per million cells at 10 uM incubated for 2 hrs by LC-MS/MS analysis; format: ADME, cell-based; settings: epithelial cell
Human metapneumovirus = assay: Anti-viral activity against hMPV CAN99-81 (A1 genotype) infected in rhesus monkey LLC-MK2 cells incubated for 3 to 5 days; format: functional, organism-based
Influenza A virus = assay: Anti-viral activity against Influenza A (H1N1) infected in MDCK cells by MTS assay; format: functional, organism-based; settings: H
enterovirus D68 = assay: Anti-viral activity against EV-D68 (18952) infected in human RD cells by MTS assay; format: functional, organism-based; settings: Enterovirus D, 18952, RD
Enterovirus A71 = assay: Anti-viral activity against EV-71 (H) infected in human RD cells by MTS assay; format: functional, organism-based; settings: Enterovirus A

SMILES: CCC(=O)O[C@H]1[C@H](c2ccc3c(N)ncnn23)O[C@](C#N)(CO[P@@](=O)(N[C@@H](C)C(=O)OC2CCCCC2)Oc2ccccc2)[C@H]1OC(=O)CC
- EC50 [1]: 0.041 µM
- EC50 [2]: 0.06 µM
- CC50 [3]: 33.9 µM
- CC50 at 120 h [4]: 17.1 µM
- logD at 0.5 h [5]: 3.5

SMILES: C[C@]1(CO)O[C@@H](c2ccc3c(N)ncnn23)[C@H](O)[C@@H]1O
- EC50 [1]: > 50 µM
- EC50 [2]: 25.3 µM
- CC50 [3]: > 50 µM
- CC50 at 120 h [4]: > 50 µM

SMILES: CCC(CC)OC(=O)[C@H](C)NP(=O)(OC[C@@]1(C#N)O[C@@H](c2ccc3c(N)ncnn23)[C@H](O)[C@@H]1O)Oc1ccccc1 (some centres undefined)
- EC50 [1]: 0.054 µM
- EC50 [2]: 0.029 µM
- CC50 [3]: > 93 µM
- CC50 at 120 h [4]: 40.1 µM
- logD at 0.5 h [5]: 2.1

SMILES: C=C[C@]1(COP(=O)(O)OP(=O)(O)OP(=O)(O)O)O[C@@H](c2ccc3c(N)ncnn23)[C@H](O)[C@@H]1O
- Activity [6]: 0.96%

SMILES: COC(=O)C(C)N[P@](=O)(OC[C@@]1(C#N)O[C@@H](c2ccc3c(N)ncnn23)[C@H](OC(C)=O)[C@@H]1OC(C)=O)Oc1ccccc1 (some centres undefined)
- EC50 [1]: 0.051 µM
- EC50 [2]: 0.127 µM
- CC50 [3]: > 42 µM
- CC50 at 120 h [4]: 10.6 µM
- logD at 0.5 h [5]: 2

SMILES: N#C[C@]1(COP(=O)(O)OP(=O)(O)OP(=O)(O)O)O[C@@H](c2ccc3c(N)ncnn23)[C@H](O)[C@@H]1O
- IC50 [7]: 0.05 µM
- Activity [6]: 0.8%
- IC50 [8]: > 200 µM
- Activity (Homo sapiens [9]): 0%
- Activity (Homo sapiens [10]): 0%

SMILES: CC(=O)O[C@H]1[C@H](c2ccc3c(N)ncnn23)O[C@](C#N)(CO[P@@](=O)(N[C@@H](C)C(=O)OC2CCCCC2)Oc2ccccc2)[C@H]1OC(C)=O
- EC50 [1]: 0.023 µM
- EC50 [2]: 0.206 µM
- CC50 [3]: > 49 µM
- CC50 at 120 h [4]: 29.8 µM
- logD at 0.5 h [5]: 2.9
- Drug metabolism [11]: 40 pM

SMILES: [N-]=[N+]=N[C@]1(COP(=O)(O)OP(=O)(O)OP(=O)(O)O)O[C@@H](c2ccc3c(N)ncnn23)[C@H](O)[C@@H]1O
- IC50 [7]: 0.12 µM
- Activity [6]: 132%
- IC50 [8]: 1 µM
- Activity (Homo sapiens [9]): 0.62%
- Activity (Homo sapiens [10]): 0%

SMILES: CCCOC(=O)[C@H](C)N[P@](=O)(OC[C@@]1(C#N)O[C@@H](c2ccc3c(N)ncnn23)[C@H](OC(=O)C(C)C)[C@@H]1OC(=O)C(C)C)Oc1ccccc1
- EC50 [1]: 0.046 µM
- EC50 [2]: 0.036 µM
- CC50 [3]: 15.7 µM
- CC50 at 120 h [4]: 4.92 µM
- logD at 0.5 h [5]: 3.3
- Drug metabolism [11]: 402 pM

SMILES: C[C@H](N[P@](=O)(OC[C@@]1(C#N)O[C@@H](c2ccc3c(N)ncnn23)[C@H](O)[C@@H]1O)Oc1ccccc1)C(=O)OC1CCOCC1
- EC50 [1]: > 4.3 µM
- EC50 [2]: 1.49 µM
- CC50 [3]: > 50 µM
- CC50 at 120 h [4]: > 57 µM
- logD at 0.5 h [5]: 1.3

SMILES: CCCOC(=O)[C@H](C)N[P@](=O)(OC[C@@]1(C#N)O[C@@H](c2ccc3c(N)ncnn23)[C@H](O)[C@@H]1O)Oc1ccccc1
- EC50 [1]: 0.168 µM
- EC50 [2]: 0.055 µM
- CC50 [3]: > 50 µM
- CC50 at 120 h [4]: 10.3 µM
- logD at 0.5 h [5]: 1.2

SMILES: Nc1ncnn2c([C@@H]3O[C@H](CO)[C@@H](O)[C@H]3O)ccc12
- CC50 [3]: 0.037 µM
- CC50 at 120 h [4]: < 0.01 µM

SMILES: Nc1ncnn2c([C@@H]3O[C@@](CO)(CCl)[C@@H](O)[C@H]3O)ccc12
- EC50 [1]: > 25 µM
- EC50 [2]: > 50 µM
- CC50 [3]: > 38 µM
- CC50 at 120 h [4]: > 50 µM

SMILES: Nc1ncnn2c([C@@H]3O[C@](CCl)(COP(=O)(O)OP(=O)(O)OP(=O)(O)O)[C@@H](O)[C@H]3O)ccc12
- IC50 [7]: 1.1 µM
- Activity [6]: 0.1%

SMILES: NC(=O)c1ncn([C@@H]2O[C@H](CO)[C@@H](O)[C@H]2O)n1 [RIBAVIRIN]
- EC50 (Human metapneumovirus): 34.8 µM

SMILES: COC(=O)[C@H](C)N[P@](=O)(OC[C@@]1(C#N)O[C@@H](c2ccc3c(N)ncnn23)[C@H](O)[C@@H]1O)Oc1ccccc1
- EC50 [1]: 0.295 µM
- EC50 [2]: 0.122 µM
- CC50 [3]: > 50 µM
- CC50 at 120 h [4]: > 38 µM
- logD at 0.5 h [5]: 1.1
- Drug metabolism [11]: 15 pM

SMILES: NC(=O)c1nc(F)cnc1O [FAVIPIRAVIR]
- EC50 (Influenza A virus): 5.87 µM

SMILES: CCC(=O)O[C@H]1[C@H](c2ccc3c(N)ncnn23)O[C@](C#N)(CO[P@@](=O)(NC(C)C(=O)OC)Oc2ccccc2)[C@H]1OC(=O)CC (some centres undefined)
- EC50 [1]: 0.019 µM
- EC50 [2]: 0.092 µM
- CC50 [3]: 30 µM
- CC50 at 120 h [4]: 3.33 µM
- logD at 0.5 h [5]: 2.2
- Drug metabolism [11]: 384 pM

SMILES: C[C@H](N[P@@](=O)(OC[C@@]1(C#N)O[C@@H](c2ccc3c(N)ncnn23)[C@H](O)[C@@H]1O)Oc1ccccc1)C(=O)OC1CCCCC1
- EC50 [1]: 0.63 µM
- EC50 [2]: 3.11 µM
- CC50 [3]: > 50 µM
- CC50 at 120 h [4]: > 50 µM

SMILES: N#C[C@]1(CO)O[C@@H](c2ccc3c(N)ncnn23)[C@H](O)[C@@H]1O
- EC50 [1]: 6.23 µM
- EC50 [2]: 6.83 µM
- CC50 [3]: > 50 µM
- CC50 at 120 h [4]: > 50 µM

SMILES: CC(C)OC(=O)[C@H](C)N[P@](=O)(OC[C@@]1(C#N)O[C@@H](c2ccc3c(N)ncnn23)[C@H](O)[C@@H]1O)Oc1ccccc1
- EC50 [1]: 0.933 µM
- EC50 [2]: 0.391 µM
- CC50 [3]: > 50 µM
- CC50 at 120 h [4]: > 57 µM
- logD at 0.5 h [5]: 1.3

SMILES: N#C[C@]1(COP(=O)(O)OP(=O)(O)OP(=O)(O)O)O[C@@H](c2ccc3c(N)ncnn23)[C@H](F)[C@@H]1O
- IC50 [7]: 0.086 µM
- Activity [6]: 0.03%
- IC50 [8]: 115 µM
- Activity (Homo sapiens [9]): 2.3%
- Activity (Homo sapiens [10]): 8.7%

SMILES: N#C[C@]1(CO)O[C@@H](c2ccc3c(N)ncnn23)[C@H](F)[C@@H]1O
- EC50 [1]: 2.31 µM
- CC50 [3]: > 100 µM
- CC50 at 120 h [4]: > 50 µM

SMILES: [N-]=[N+]=N[C@]1(CO)O[C@@H](c2ccc3c(N)ncnn23)[C@H](O)[C@@H]1O
- EC50 [1]: 3.59 µM
- EC50 [2]: 2.02 µM
- CC50 [3]: > 50 µM
- CC50 at 120 h [4]: > 50 µM

SMILES: CC(C)C(=O)O[C@H]1[C@H](c2ccc3c(N)ncnn23)O[C@](C#N)(CO[P@@](=O)(N[C@@H](C)C(=O)OC2CCCCC2)Oc2ccccc2)[C@H]1OC(=O)C(C)C
- EC50 [1]: 0.017 µM
- EC50 [2]: 0.06 µM
- CC50 [3]: 18.1 µM
- CC50 at 120 h [4]: 8.7 µM
- logD at 0.5 h [5]: 4
- Drug metabolism [11]: 170 pM

SMILES: CCOC(=O)[C@H](C)N[P@](=O)(OC[C@@]1(C#N)O[C@@H](c2ccc3c(N)ncnn23)[C@H](O)[C@@H]1O)Oc1ccccc1
- EC50 [1]: 0.932 µM
- EC50 [2]: 0.095 µM
- CC50 [3]: > 100 µM
- CC50 at 120 h [4]: 28.7 µM
- logD at 0.5 h [5]: 1.1

SMILES: CC(C)S(=O)(=O)n1c(N)nc2ccc(/C(=N/O)c3ccccc3)cc21 [ENVIROXIME]
- EC50 (enterovirus D68): 0.22 µM
- EC50 (Enterovirus A71): 0.02 µM

SMILES: C[C@H](N[P@](=O)(OC[C@@]1(C#N)O[C@@H](c2ccc3c(N)ncnn23)[C@H](O)[C@@H]1O)Oc1ccccc1)C(=O)OC1CCCCC1
- EC50 [1]: 0.141 µM
- EC50 [2]: 0.148 µM
- CC50 [3]: > 100 µM
- CC50 at 120 h [4]: > 50 µM
- logD at 0.5 h [5]: 2.2
- Drug metabolism [11]: 13 pM

SMILES: C[C@]1(COP(=O)(O)OP(=O)(O)OP(=O)(O)O)O[C@@H](c2ccc3c(N)ncnn23)[C@H](O)[C@@H]1O
- Activity [6]: 3.2%

SMILES: C=C[C@]1(CO)O[C@@H](c2ccc3c(N)ncnn23)[C@H](O)[C@@H]1O
- EC50 [1]: > 50 µM
- EC50 [2]: > 50 µM
- CC50 [3]: > 50 µM
- CC50 at 120 h [4]: > 50 µM

SMILES: CCCOC(=O)[C@H](C)N[P@](=O)(OC[C@@]1(C#N)O[C@@H](c2ccc3c(N)ncnn23)[C@H](OC(=O)CC)[C@@H]1OC(=O)CC)Oc1ccccc1
- EC50 [1]: 0.056 µM
- EC50 [2]: 0.041 µM
- CC50 [3]: 27.3 µM
- CC50 at 120 h [4]: 7.65 µM
- logD at 0.5 h [5]: 2.8
- Drug metabolism [11]: 165 pM
